From US20250019648A1, “A SPERM EXTENDER MEDIUM” (MEAT & LIVESTOCK AUSTRALIA LIMITED, priority 2021, published 2025)

What was measured:
[1] = system: bovine spermatozoa; assay: Comparison of amino acid osmolytes on bovine sperm motility during liquid storage at RT; type: cell-based; conditions: for total and progressive motilities compared with other osmolyte treatments: Part 1, 7 days storage at RT, n=10 bulls; for total and progressive motilities compared with other osmolyte treatments / motility by day 14 of storage / loss in motility between 3 and 10 days of storage: 82.2 mM in base solution without NaCl; for motility by day 14 of storage / loss in motility between 3 and 10 days of storage / motility compared with NaCl and choline chloride controls: Part 2; for motility by day 14 of storage / loss in motility between 3 and 10 days of storage: RT; for loss in motility between 3 and 10 days of storage: n=9 bulls; for motility compared with NaCl and choline chloride controls: all time points (3, 7, 10, 14 days) at RT; for capability to prolong bovine sperm motility at room temperature: amino acid as osmolyte in extender medium
Excerpt: (§1) Sperm motility was objectively determined with computer assisted sperm analysis (CASA; IVOS, Hamilton Thorne, Danvers, MA) using the following settings; negative phase-contrast optics, recording rate of 60 frames/s, minimum contrast of 70, minimum cell size of 4 pixels, low size gate of 0.17, high size gate of 2.9, low intensity gate of 0.6, high intensity gate of 1.74, non-motile head size of 10 pixels, non-motile head intensity of 135, progressive VAP threshold of 50 μm/s, slow (static) cells VAP threshold of 20 μm/s, slow (static) cells VSL threshold of 0 μm/s and threshold STR of 75%. […] Cells with a VAP greater than that of the mean VAP of progressive cells were considered ‘rapid’. A minimum of 200 spermatozoa in a minimum of five fields were assessed using 20 μm Leja standard count slides (Gytech, Australia) and a stage temperature of 37° C.
Bull semen (animals were housed at Charles Sturt University, Wagga Wagga, NSW, Australia) was collected via electroejaculation, immediately diluted 2:1 (extender:semen) with equine INRA96™ semen extender, and maintained at room temperature (RT) before further processing. Extended semen was then layered onto a discontinuous (45/90%) Percoll™ gradient and centrifuged at 700×g for 30 min to isolate high quality spermatozoa to be used for storage experiments described below. The high-quality pelleted spermatozoa were then resuspended in modified Biggers, Whitter and Whittingham (BWW) medium (Gibb et al., 2014) and washed again via centrifugation (300×g for 5 min). Pelleted spermatozoa were then resuspended in the various formulations described in each experiment, and stored in 5 mL Sarstedt specimen pots at RT (21-23° C.) in the dark until they were assessed.
This study was undertaken in 2 parts: the first was a screening of soluble amino acids (spermatozoa from split ejaculates of n=10 bulls), and the second was to confirm the results of the first part using only the most successful 3 amino acids (spermatozoa from split ejaculates of n=9 bulls). Sodium chloride and choline chloride were used as osmolyte controls.
The base bovine extender solution described above (Example 1, Experiment 3) was utilised for the purposes of these evaluations, with the exception that the 41.1 mM NaCl was not included in the base solution to which either the test amino acid or choline chlorine was added. Test amino acid was added to the base solution to a final concentration of 82.2 mM whilst the controls contained either the NaCl or choline chloride to a final concentration of 41.1 mM. The initial pH of solutions varied between 7-10 and were adjusted to be between 7.5 and 8.0 with either KOH or HCl. All test media were supplemented with 100 U/ml Nystatin to control fungal growth. Sperm motility was assessed as per Example 1.
For Part 1 of the study, motility was evaluated following 7 days liquid storage at room temperature (RT). Motility of spermatozoa was evaluated at 3, 7, 10 and 14 days liquid storage at RT for Part 2 of the study. Data were again analysed using JMP v14 software (ANOVA).

[2] = Lide, Handbook of Chemistry and Physics, 72nd Edition; cited from earlier work
[3] = system: bovine spermatozoa; assay: Effects of medium components on bovine sperm motility after 24 hours at RT (Experiment 2); type: cell-based; conditions: for effect on sperm motility at the 24 h mark as determined by CASA: field conditions, rosiglitazone 0-100 μM, sugar source, coenzyme Q10; for total and progressive motilities when 50% of the NaCl was replaced: L-carnitine 100 mM or choline chloride 95 mM
Excerpt: Institutional and New South Wales State Government ethical approval was secured for the use of animal material in this study. This research was based on ejaculates from 17 normozoospermic Angus bulls (between 3 and 7 years of age) of proven fertility, held on institutionally-approved premises at Charles Sturt University ([…], Australia). Semen was collected via electro-ejaculation, and the ejaculate was either left undiluted (Experiment 1) or was immediately diluted (2:1; extender:semen) with INRA96 (Experiments 2 and 3-Sections 2 and 3). […] Equipment and extender medium were maintained at temperatures between 30° C. and 37° C. for the duration of semen collection and dilution. The tubes of extended semen were then held in the laboratory at RT (approx. 20 to 25° C.) for up to 30 min prior to further processing. For Experiment 1, up to 6 mL of the extended semen was either centrifuged directly (700×g for 10 min), or was overlaid on top of BoviPureTM gradient and centrifuged at 700×g for 20 min, and for Experiments 2 and 3 up to 5 mL extended semen was layered on top of PercollTM gradients and centrifuged at 700×g for 30 min. Following centrifugation, the seminal plasma and density gradient media were removed and discarded. Spermatozoa were recovered from the base of the tubes, resuspended in 2 mL BWW and washed via centrifugation (500×g for 5 min) with BWW. These pelleted cells were then resuspended at a concentration of 50×10^6 spermatozoa/mL in the experimental extender media. Sperm motility was objectively determined with computer assisted sperm analysis (CASA; IVOS, Hamilton Thorne, Danvers, MA) using the following settings; negative phase-contrast optics, recording rate of 60 frames/s, minimum contrast of 70, minimum cell size of 4 pixels, low size gate of 0.17, high size gate of 2.9, low intensity gate of 0.6, high intensity gate of 1.74, non-motile head size of 10 pixels, non-motile head intensity of 135, progressive VAP threshold of 50 μm/s, slow (static) cells VAP threshold of 20 μm/s, slow (static) cells VSL threshold of 0 μm/s and threshold STR of 75%. […] Cells with a VAP greater than that of the mean VAP of progressive cells were considered 'rapid'. A minimum of 200 spermatozoa in a minimum of five fields were assessed using 20 μm Leja standard count slides ([…], Australia) and a stage temperature of 37° C.

[4] = system: bovine spermatozoa; assay: Fungicide comparison on bovine sperm motility; type: cell-based; conditions: Nystatin 100 U/mL, Fluconazole 12.5 mg/L and 25 mg/L; 1, 3, 7, 10 and 14 days at RT in glycine (82.2 mM) medium
Excerpt: as §1, with “C. […]” for “C.”
Semen was collected, processed and stored according as above (Example 2, Section 1.1). Following 1, 3, 7, 10 and 14 days of storage at RT in the base extender solution as described (Example 2, Experiment 2) supplemented with glycine to a final concentration of 82.2 mM (pH of the medium was 7.9), sperm motility was assessed using CASA as above. Data were analysed using JMP v14 software (ANOVA).

Structure (SMILES): C[C@H](N)C(=O)O [alanine]
- total and progressive motilities compared with other osmolyte treatments [1]: significantly higher than all other treatments
- motility by day 14 of storage [1]: significantly declined
- loss in motility between 3 and 10 days of storage [1]: did not suffer any significant loss in motility
- motility compared with NaCl and choline chloride controls [1]: significantly higher than both of the controls
- isoelectric point (pI) [2]: 6.0

Structure (SMILES): CC[C@H](C)[C@H](N)C(=O)O [isoleucine]
- capability to prolong bovine sperm motility at room temperature [1]: no or only relatively limited capability
- isoelectric point (pI) [2]: 6.02

Structure (SMILES): O=C(CO)[C@@H](O)[C@H](O)[C@H](O)CO [fructose]
- effect on sperm motility at the 24 h mark as determined by CASA [3]: No significant effects

Structure (SMILES): CC(=O)C(=O)[O-].[Na+] [Sodium pyruvate]
- difference in sperm motility versus absence of the component ([3]; 0.275 mM to 20 mM, 24 hours at RT): No significant difference

Structure (SMILES): NCCS(=O)(=O)O [taurine, 2-aminoethane-1-sulfonic acid]
- total and progressive motilities compared with other osmolyte treatments [1]: significantly higher than all other treatments
- total and progressive motility, taurine compared with valine ([1]; day 3 of liquid storage): better total and progressive motility

Structure (SMILES): NCC(=O)O [glycine]
- total and progressive motilities compared with other osmolyte treatments [1]: significantly higher than all other treatments
- motility by day 14 of storage [1]: significantly declined
- loss in motility between 3 and 10 days of storage [1]: did not suffer any significant loss in motility
- motility compared with NaCl and choline chloride controls [1]: significantly higher than both of the controls
- isoelectric point (pI) [2]: 5.97

Structure (SMILES): CSCC[C@H](N)C(=O)O [methionine]
- capability to prolong bovine sperm motility at room temperature [1]: no or only relatively limited capability
- isoelectric point (pI) [2]: 5.74

Structure (SMILES): O=C(O)[C@@H]1CCCN1 [proline]
- capability to prolong bovine sperm motility at room temperature [1]: no or only relatively limited capability
- isoelectric point (pI) [2]: 6.3

Structure (SMILES): C[N+](C)(C)C[C@H](O)CC(=O)[O-] [L-carnitine]
- total and progressive motilities when 50% of the NaCl was replaced ([3]; 24 hours at RT): improved

Structure (SMILES): C[N+](C)(C)CCO.[Cl-] [choline chloride, reference compound]
- total and progressive motilities when 50% of the NaCl was replaced ([3]; 24 hours at RT): improved

Structure (SMILES): N[C@@H](CS)C(=O)O [cysteine]
- capability to prolong bovine sperm motility at room temperature [1]: no or only relatively limited capability
- isoelectric point (pI) [2]: 5.07

Structure (SMILES): OC[C@H]1O[C@@](CO)(O[C@H]2O[C@H](CO)[C@@H](O)[C@H](O)[C@H]2O)[C@@H](O)[C@@H]1O [sucrose]
- effect on sperm motility at the 24 h mark as determined by CASA [3]: No significant effects

Structure (SMILES): CC(C)C[C@H](N)C(=O)O [leucine]
- capability to prolong bovine sperm motility at room temperature [1]: no or only relatively limited capability

Structure (SMILES): N[C@@H](Cc1ccccc1)C(=O)O [phenylalanine]
- capability to prolong bovine sperm motility at room temperature [1]: no or only relatively limited capability
- isoelectric point (pI) [2]: 5.48

Structure (SMILES): OC[C@H]1O[C@H](OC[C@H]2O[C@H](O[C@]3(CO)O[C@H](CO)[C@@H](O)[C@@H]3O)[C@H](O)[C@@H](O)[C@@H]2O)[C@H](O)[C@@H](O)[C@H]1O [raffinose]
- effect on sperm motility at the 24 h mark as determined by CASA [3]: No significant effects

Structure (SMILES): N[C@@H](Cc1c[nH]c2ccccc12)C(=O)O [tryptophan]
- capability to prolong bovine sperm motility at room temperature [1]: no or only relatively limited capability
- isoelectric point (pI) [2]: 5.89

Structure (SMILES): CC(C)[C@H](N)C(=O)O [valine]
- total and progressive motilities compared with other osmolyte treatments [1]: substantially better
- motility by day 14 of storage [1]: significantly declined
- loss in motility between 3 and 10 days of storage [1]: did not suffer any significant loss in motility
- motility compared with NaCl and choline chloride controls [1]: significantly higher than both of the controls
- motility, valine compared with taurine ([1]; day 14 of liquid storage, data not shown): better motility
- isoelectric point (pI) [2]: 5.96

Structure (SMILES): COC1=C(OC)C(=O)C(C/C=C(\C)CC/C=C(\C)CC/C=C(\C)CC/C=C(\C)CC/C=C(\C)CC/C=C(\C)CC/C=C(\C)CC/C=C(\C)CC/C=C(\C)CCC=C(C)C)=C(C)C1=O [coenzyme Q10]
- effect on sperm motility at the 24 h mark as determined by CASA [3]: No significant effects

Structure (SMILES): OC(Cn1cncn1)(Cn1cncn1)c1ccc(F)cc1F [Fluconazole]
- difference in sperm motility between antifungal treatments and control with no antifungal [4]: No significant differences
